The test system of the assay is P388 leukemia ip, CD2F1 mice, survival T/C. Briefly: NCI In Vivo Anticancer Drug Screen. Data for tumor model P388 Leukemia (intraperitoneal) in CD2F1 (CDF1) mice. The settings on record: endpoint: median survival time, higher = longer survival. Put shortly:
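Mice carrying the transplanted tumor received test compound or vehicle. Survival was recorded in each group, and the value is the treated-group measurement divided by that of the vehicle-treated control group.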

Setting [1] is: dose: 50.0 mg/kg/injection, schedule: Q01DX009 (ip), vehicle: Klucel (hydroxypropylcellulose) (HPC).
Where [2] appears, read: dose: 100.0 mg/kg/injection, schedule: Q01DX009 (ip), vehicle: Klucel (hydroxypropylcellulose) (HPC).
Where [3] appears, read: dose: 25.0 mg/kg/injection, schedule: Q01DX005 (ip), vehicle: Klucel (hydroxypropylcellulose) (HPC).
The mark [4] stands for this setting: dose: 50.0 mg/kg/injection, schedule: Q01DX005 (ip), vehicle: Klucel (hydroxypropylcellulose) (HPC).
Where [5] appears, read: dose: 200.0 mg/kg/injection, schedule: Q01DX009 (ip), vehicle: Klucel (hydroxypropylcellulose) (HPC).
Setting [6] is: dose: 100.0 mg/kg/injection, schedule: Q04DX003 (ip), vehicle: Klucel (hydroxypropylcellulose) (HPC).
[7] abbreviates: dose: 200.0 mg/kg/injection, schedule: Q04DX003 (ip), vehicle: Klucel (hydroxypropylcellulose) (HPC).
Where [8] appears, read: dose: 100.0 mg/kg/injection, schedule: Q01DX005 (ip), vehicle: saline with Tween-80.
[9] abbreviates: dose: 200.0 mg/kg/injection, schedule: Q01DX005 (ip), vehicle: saline with Tween-80.
Where [10] appears, read: dose: 50.0 mg/kg/injection, schedule: Q01DX009 (ip), vehicle: saline with Tween-80.
Setting [11] is: dose: 200.0 mg/kg/injection, schedule: Q01DX009 (ip), vehicle: saline with Tween-80.
Where [12] appears, read: dose: 50.0 mg/kg/injection, schedule: Q01DX009 (ip), vehicle: saline.
The mark [13] stands for this setting: dose: 100.0 mg/kg/injection, schedule: Q01DX009 (ip), vehicle: saline.
Setting [14] is: dose: 50.0 mg/kg/injection, schedule: Q01DX005 (ip), vehicle: saline with Tween-80.

Structures are written as SMILES. Values joined by “and” are separate entries in the source; they are usually repeats but may differ in a detail not shown here. Equal values may be shown once. Inconclusive results and toxic doses are left out.

For the molecule `CCC(CCC(C)C1CCC2C3CC=C4CC(O)CCC4(C)C3CCC12C)C(C)C` (stereo unspecified) (tested in a mixture with another compound), the T/C was 105 % of control under setting [1] and 90 % of control under setting [2].
Consider `O=C1C(Cl)=C(NC(=O)C2CCCCC2)C(=O)C(Cl)=C1NC(=O)C1CCCCC1`, for which the T/C reads like this: under setting [3], 90 % of control; under setting [4], 90 % of control; (dose: 100.0 mg/kg/injection, schedule: Q01DX005 (ip), vehicle: Klucel (hydroxypropylcellulose) (HPC)) 88 % of control; (dose: 200.0 mg/kg/injection, schedule: Q01DX005 (ip), vehicle: Klucel (hydroxypropylcellulose) (HPC)) 89 % of control.
On to `CCOC(=O)CCC(Cl)(Cl)Cl`, for which the T/C is, setting by setting: under setting [1], 100 % of control; under setting [2], 100 % of control; under setting [5], 97 % of control.
As for `Clc1cc2nc3[nH]c4ccccc4c3nc2cc1Cl`, the T/C runs as follows: (dose: 15.0 mg/kg/injection, schedule: Q01DX005 (ip), vehicle: Klucel (hydroxypropylcellulose) (HPC)) 93 % of control; (dose: 30.0 mg/kg/injection, schedule: Q01DX005 (ip), vehicle: Klucel (hydroxypropylcellulose) (HPC)) 101 % of control; (dose: 60.0 mg/kg/injection, schedule: Q01DX005 (ip), vehicle: Klucel (hydroxypropylcellulose) (HPC)) 93 % of control and 98 % of control; (dose: 120.0 mg/kg/injection, schedule: Q01DX005 (ip), vehicle: Klucel (hydroxypropylcellulose) (HPC)) 97 % of control.
In the case of `COc1ccc(-c2nn(C)c3c2C(=O)CCC3)cc1OC`, the T/C was 94 % of control under setting [6] and 99 % of control under setting [7].
Consider `CC1(C)CC(=O)c2c(oc3cc4c5c(oc4cc23)CC(C)(C)CC5=O)C1`, for which the T/C was 90 % of control (dose: 12.5 mg/kg/injection, schedule: Q01DX005 (ip), vehicle: saline with Tween-80); 91 % of control (dose: 25.0 mg/kg/injection, schedule: Q01DX005 (ip), vehicle: saline with Tween-80); 87 % of control under setting [8]; 92 % of control under setting [9].
In the case of `COc1ccc(OC)c(/C=C/C2=C(C)C(=O)CC(c3cc(OC)ccc3OC)C2C)c1` (stereo unspecified), the T/C under setting [6] is 90 % of control and the T/C under setting [7] was 88 % of control.
Regarding `C=C1C(=O)OC2C=CCCC12` (stereo unspecified), the T/C is 101 % of control (dose: 12.5 mg/kg/injection, schedule: Q01DX009 (ip), vehicle: water); 103 % of control (dose: 25.0 mg/kg/injection, schedule: Q01DX009 (ip), vehicle: water); 106 % of control (dose: 50.0 mg/kg/injection, schedule: Q01DX009 (ip), vehicle: water); 118 % of control (dose: 100.0 mg/kg/injection, schedule: Q01DX009 (ip), vehicle: water).
With `COc1ccc(Cc2n[nH]c(=O)c3c(C)[nH]nc23)cc1`, the T/C is 93 % of control under setting [1], 100 % of control under setting [2] and 119 % of control under setting [5].
In the case of `Cc1nc2c([N+](=O)[O-])c(N3CCN(c4ccccc4)CC3)c([N+](=O)[O-])cc2[nH]1`, the T/C was 100 % of control under setting [10]; 100 % of control (dose: 100.0 mg/kg/injection, schedule: Q01DX009 (ip), vehicle: saline with Tween-80); 99 % of control under setting [11].
In the case of `C(/CSC/C=N/Nc1ccccc1)=N\Nc1ccccc1`, the T/C is 103 % of control under setting [12] and 103 % of control under setting [13].
On to `C[N+]1=Nc2cccc3cccc(c23)[N-]1`, for which the T/C reads like this: (dose: 50.0 mg/kg/injection, schedule: Q01DX001 (ip), vehicle: Klucel (hydroxypropylcellulose) (HPC)) 111 % of control; (dose: 100.0 mg/kg/injection, schedule: Q01DX001 (ip), vehicle: Klucel (hydroxypropylcellulose) (HPC)) 102 % of control; (dose: 200.0 mg/kg/injection, schedule: Q01DX001 (ip), vehicle: Klucel (hydroxypropylcellulose) (HPC)) 100 % of control.
Regarding `Cc1cc(OC(=O)c2c(-c3c(Cl)cccc3Cl)noc2C)n(-c2ccc(NC(=O)c3c(-c4c(Cl)cccc4Cl)noc3C)cc2)n1`, the T/C is, setting by setting: under setting [12], 93 % of control; under setting [13], 89 % of control; (dose: 200.0 mg/kg/injection, schedule: Q01DX009 (ip), vehicle: saline) 88 % of control.
Regarding `CN=S(=O)(OCCCCCOS(=O)(=NC)c1ccccc1)c1ccccc1` (stereo unspecified), the T/C was 124 % of control under setting [10]; 158 % of control and 170 % of control under setting [11].
In the case of `CCCCCCCCCCCCCCCc1c(NC(C)(CC(C)(C)O)[P+](=O)O)c(=O)n(C)n1C` (stereo unspecified), the T/C is, setting by setting: under setting [12], 96 % of control; under setting [13], 88 % of control.
In the case of `Cc1nc2ccc3c(ccc4nc(C)c(N=Nc5ccc(C(=N)N)cc5)c(O)c43)c2c(O)c1N=Nc1ccc(C(=N)N)cc1`, the T/C by setting is: under setting [14], 114 % of control; under setting [8], 116 % of control; under setting [9], 116 % of control.
With `NN(CC(O)COc1ccccc1)C(=O)c1ccccc1O` (stereo unspecified), the T/C under setting [1] was 108 % of control, the T/C under setting [2] is 108 % of control and the T/C under setting [5] was 106 % of control.
With `COC(=O)c1cc2c(s1)CCC/C(Cl)=C(/C=O)C2`, the T/C was 96 % of control (dose: 6.25 mg/kg/injection, schedule: Q01DX009 (ip), vehicle: saline with Tween-80); 97 % of control (dose: 6.25 mg/kg/injection, schedule: Q01DX009 (ip), vehicle: saline); 104 % of control and 94 % of control (dose: 12.5 mg/kg/injection, schedule: Q01DX009 (ip), vehicle: saline with Tween-80); 91 % of control (dose: 12.5 mg/kg/injection, schedule: Q01DX009 (ip), vehicle: saline); 106 % of control and 95 % of control (dose: 25.0 mg/kg/injection, schedule: Q01DX009 (ip), vehicle: saline with Tween-80); 97 % of control (dose: 25.0 mg/kg/injection, schedule: Q01DX009 (ip), vehicle: saline). In addition, the T/C was 100 % of control and 107 % of control under setting [10]; 101 % of control and 120 % of control under setting [12]; 103 % of control under setting [13].
`N#CC(C#N)=C(c1ccccc1)c1ccccc1`: the T/C is, setting by setting: under setting [1], 95 % of control; under setting [2], 110 % of control; under setting [5], 100 % of control.
Consider `CCOC(=O)C1C(C)=CC2=Nc3ccccc3NC(=O)C2C1c1ccccc1` (stereo unspecified), for which the T/C is, setting by setting: under setting [3], 104 % of control; under setting [4], 106 % of control.
With `Oc1ccc2ccccc2c1/C=N/N=c1\[nH][nH]/c(=N\N=C\c2c(O)ccc3ccccc23)c2ccccc12`, the T/C under setting [14] is 98 % of control, the T/C under setting [8] is 97 % of control and the T/C under setting [9] was 99 % of control.

(Values after PubChem BioAssay AID330 (DTP/NCI, 2004).)
